Source: patent US9556201B2, “Bicyclic pyridines and analogs as sirtuin modulators” (GLAXOSMITHKLINE LLC, priority 2009, dated 2017)

Target: T1, SIRT1 (Homo sapiens, UniProt Q96EB6)
T1 sequence (Q96EB6 1-747): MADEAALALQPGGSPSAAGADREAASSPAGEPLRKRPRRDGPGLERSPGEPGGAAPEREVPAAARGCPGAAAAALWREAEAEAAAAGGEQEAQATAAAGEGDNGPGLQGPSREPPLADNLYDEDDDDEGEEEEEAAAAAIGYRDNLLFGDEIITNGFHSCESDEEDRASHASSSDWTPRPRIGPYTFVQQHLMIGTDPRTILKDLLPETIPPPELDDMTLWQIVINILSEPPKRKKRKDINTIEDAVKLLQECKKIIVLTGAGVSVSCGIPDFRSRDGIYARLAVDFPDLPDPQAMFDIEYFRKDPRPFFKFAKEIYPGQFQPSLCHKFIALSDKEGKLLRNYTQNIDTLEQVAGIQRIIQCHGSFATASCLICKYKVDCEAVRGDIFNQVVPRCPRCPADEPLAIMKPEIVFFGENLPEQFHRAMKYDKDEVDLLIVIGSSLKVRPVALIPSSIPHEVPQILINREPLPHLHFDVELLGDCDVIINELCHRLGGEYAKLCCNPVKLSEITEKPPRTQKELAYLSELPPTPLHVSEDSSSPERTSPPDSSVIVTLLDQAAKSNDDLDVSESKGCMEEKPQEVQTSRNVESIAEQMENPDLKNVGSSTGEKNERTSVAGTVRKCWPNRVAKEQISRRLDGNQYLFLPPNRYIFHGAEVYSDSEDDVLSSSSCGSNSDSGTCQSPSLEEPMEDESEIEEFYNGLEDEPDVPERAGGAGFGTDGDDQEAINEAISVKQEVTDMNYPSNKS
Experiment: Mass spectrometry based assay to identify modulators of SIRT1 activity (deacetylation of p53-based acetylated peptide substrate)
Assay type: biochemical
Conditions: for Emax: 25 min, read-out: % FOLD ACT. (percent maximum fold activation); for Emax / EC1.5: SIRT1 activation
From the text: A mass spectrometry based assay was used to identify modulators of SIRT1 activity. The mass spectrometry based assay utilizes a peptide having 20 amino acid residues as follows: Ac-EE-K(biotin)-GQSTSSHSK(Ac)NleSTEG-K(5TMR)-EE-NH2 (SEQ ID NO: 1) wherein K(Ac) is an acetylated lysine residue and Nle is a norleucine. The peptide is labeled with the fluorophore 5TMR (excitation 540 nm/emission 580 nm) at the C-terminus. The sequence of the peptide substrate is based on p53 with several modifications. In addition, the methionine residue naturally present in the sequence was replaced with the norleucine because the methionine may be susceptible to oxidation during synthesis and purification.
The mass spectrometry assay is conducted as follows: […] peptide substrate and 120 μM βNAD^+ is incubated with 10 nM SIRT1 for 25 minutes at 25° C. in a reaction buffer (50 mM Tris-acetate pH 8, 137 mM NaCl, 2.7 mM KCl, 1 mM MgCl2, 5 mM DTT, 0.05% BSA). Test compounds may be added to the reaction as described above. The SirT1 gene is cloned into a T7-promoter containing vector and transformed into BL21(DE3). After the 25 minute incubation with SIRT1, 10 μL of 10% formic acid is added to stop the reaction. Reactions are sealed and frozen for later mass spec analysis. Determination of the mass of the substrate peptide allows for precise determination of the degree of acetylation (i.e. starting material) as compared to deacetylated peptide (product).
A control for inhibition of sirtuin activity is conducted by adding 1 μL of 500 mM nicotinamide as a negative control at the start of the reaction (e.g., permits determination of maximum sirtuin inhibition). A control for activation of sirtuin activity is conducted using 10 nM of sirtuin protein, with 1 μL of DMSO in place of compound, to determine the amount of deacetylation of the substrate at a given timepoint within the linear range of the assay. This timepoint is the same as that used for test compounds and, within the linear range, the endpoint represents a change in velocity.
For the above assay, SIRT1 protein was expressed and purified as follows. The SirT1 gene was cloned into a T7-promoter containing vector and transformed into BL21(DE3). The protein was expressed by induction with 1 mM IPTG as an N-terminal His-tag fusion protein at 18° C. overnight and harvested at 30,000×g. Cells were lysed with lysozyme in lysis buffer (50 mM Tris-HCl, 2 mM Tris[2-carboxyethyl]phosphine (TCEP), 10 μM ZnCl2, 200 mM NaCl) and further treated with sonication for 10 min for complete lysis. The protein was purified over a Ni-NTA column (Amersham) and fractions containing pure protein were pooled, concentrated and run over a sizing column (Sephadex S200 26/60 global). The peak containing soluble protein was collected and run on an Ion-exchange column (MonoQ). Gradient elution (200 mM-500 mM NaCl) yielded pure protein. This protein was concentrated and dialyzed against dialysis buffer (20 mM Tris-HCl, 2 mM TCEP) overnight. The protein was aliquoted and frozen at −80° C. until further use.

| Structure (SMILES) | Emax [%] | EC1.5 | % FOLD ACT. (percent maximum fold activation) | EC1.5 (concentration giving 1.5-fold activation) [µM] |
| --- | --- | --- | --- | --- |
| CN1C(=O)CN(C(=O)Nc2cccnn2)c2nc(-c3cccc(C(F)(F)F)c3)ccc21 [Compound 528] | ≤ 200 | C (EC1.5>25 μM) |  |  |
| O=C(Nc1ccncc1)N1CCOc2c(N3CCNCC3)nc(-c3cccc(F)c3)nc21 [Compound 751] |  |  | B (Fold Activation≦200%) | 1 to 25 |
| Cc1cc(NC(=O)N2CCOc3c(N(C)C)nc(-c4cccc(F)c4)nc32)cc(C)n1 [Compound 727] | ≤ 200 |  |  | < 1 |
| Cc1cc(NC(=O)N2CCOc3ccc(-c4cnn(C)c4C)nc32)cc(C)n1 [Compound 572] | > 200 | B (EC1.5 1-25 μM) |  |  |
| Cc1cncc(NC(=O)N2CCOc3ncc(-c4cccc(C(F)(F)F)c4)nc32)c1 [Compound 725] | > 200 |  |  | 1 to 25 |
| Cc1cc(NC(=O)N2CCOc3c(N4CCCC4)nc(-c4cccc(F)c4)nc32)cc(C)n1 [Compound 718] | ≤ 200 |  |  | 1 to 25 |
| Cc1cncc(NC(=O)N2CCCOc3ccc(-c4ccc(C)nc4)nc32)c1 [Compound 636] | ≤ 200 | C (EC1.5>25 μM) |  |  |
| Cc1ccc(-c2ccc3c(n2)N(C(=O)Nc2cccc(OC[C@H](O)CO)n2)CCO3)cn1 [Compound 694] | > 200 | B (EC1.5 1-25 μM) |  |  |
| CC1CCN(C(=O)Nc2ncccc2F)c2nc(-c3cccc(C(F)(F)F)c3)ccc21 (centres unmarked) [Compound 803] | > 200 |  |  | 1 to 25 |
| O=C(Nc1ccncc1)N1CCOc2cnc(-c3cccc(N4CCCC4)c3)nc21 [Compound 722] | > 200 |  |  | 1 to 25 |
| Cc1cc(NC(=O)N2CCOc3ccc(-c4ccnn4C)nc32)cc(C)n1 [Compound 575] | > 200 | B (EC1.5 1-25 μM) |  |  |
| Cn1nccc1NC(=O)N1CCCOc2ccc(-c3cccc(Cl)c3)nc21 [Compound 706] | ≤ 200 |  |  | > 25 |
| O=C(Nc1ccncc1)N1CCCc2ccc(-c3cccc(Cl)c3)nc21 [Compound 651] | > 200 | A (EC1.5<1.0 μM) |  |  |
| Cc1cc(-c2cccc(Cl)c2)nc2c1OCCN2C(=O)Nc1ccncn1 [Compound 685] | > 200 | A (EC1.5<1.0 μM) |  |  |
| CC1(C)CCN(C(=O)Nc2ccncc2F)c2nc(-c3cccc(C(F)(F)F)c3)ccc21 [Compound 847] | ≤ 200 |  |  | > 25 |
| Cc1cnccc1NC(=O)N1CCC(C)(C)c2ccc(-c3cccc(C(F)(F)F)c3)nc21 [Compound 834, 4,4-dimethyl-N-(3-methylpyridin-4-yl)-7-(3-(trifluoromethyl)phenyl)-3,4-dihydro-1,8-naphthyridine-1(2H)-carboxamide] | ≤ 200 |  |  | 1 to 25 |
| COc1cc(NC(=O)N2CCCOc3ccc(-c4cccc(Cl)c4)nc32)ncn1 [Compound 872] | > 200 |  |  | < 1 |
| Cc1cc(NC(=O)N2CCCOc3ccc(-c4cccc(F)c4)nc32)ccn1 [Compound 582] | > 200 | B (EC1.5 1-25 μM) |  |  |
| CCN1C(=O)CCN(C(=O)Nc2ccnc(OC)n2)c2nc(-c3cccc(Cl)c3)ccc21 [Compound 792] | ≤ 200 |  |  | > 25 |
| O=C(Nc1ccncn1)N1CCOc2ccc(-c3cccc(F)c3)nc21 [Compound 514] | > 200 | A (EC1.5<1.0 μM) |  |  |

| Structure (SMILES) | Emax [%] | EC1.5 | % FOLD ACT. (percent maximum fold activation) | EC1.5 (concentration giving 1.5-fold activation) [µM] |
| --- | --- | --- | --- | --- |
| Cc1ccc(-c2ccc3c(n2)N(C(=O)Nc2nc(C)cs2)CCCO3)cn1 [Compound 680] | > 200 | B (EC1.5 1-25 μM) |  |  |
| O=C1CCCN(C(=O)Nc2cccnc2)c2nc(-c3cccc(C(F)(F)F)c3)ccc21 [Compound 829] | > 200 |  |  | 1 to 25 |
| CCN1CCCN(C(=O)Nc2cc(C)cc(C)n2)c2nc(-c3cccc(Cl)c3)ccc21 [Compound 806] | ≤ 200 |  |  | > 25 |
| O=C1CCN(C(=O)Nc2ccccn2)c2nc(-c3cccc(C(F)(F)F)c3)ccc21 [Compound 729] | > 200 |  |  | 1 to 25 |
| O=C(Nc1ccnc(N2CCC2)c1)N1CCCOc2ccc(-c3cccc(C(F)(F)F)c3)nc21 [Compound 579] | > 200 | A (EC1.5<1.0 μM) |  |  |
| O=C(Nc1cccnn1)N1CCCOc2ccc(-c3cccc(Cl)c3)nc21 [Compound 867] | > 200 |  |  | 1 to 25 |
| O=C1CCN(C(=O)Nc2ccncc2)c2nc(-c3cccc(C(F)(F)F)c3)ccc21 [Compound 719, 4-oxo-N-(pyridin-4-yl)-7-(3-(trifluoromethyl)phenyl)-3,4-dihydro-1,8-naphthyridine-1(2H)-carboxamide] | > 200 |  |  | 1 to 25 |
| CN1C(=O)CN(C(=O)Nc2ccncc2)c2nc(-c3cccc(C(F)(F)F)c3)ccc21 [Compound 525] | > 200 | B (EC1.5 1-25 μM) |  |  |
| CCN1CCCN(C(=O)Nc2ccncc2)c2nc(-c3cccc(Cl)c3)ccc21 [Compound 777] | > 200 |  |  | 1 to 25 |
| O=C(Nc1ncc(F)cc1F)N1CCOc2ccc(-c3cccc(C(F)(F)F)c3)nc21 [Compound 567] | > 200 | B (EC1.5 1-25 μM) |  |  |
| O=C(Nc1cccc(OC[C@H](O)CO)n1)N1CCCC(F)(F)c2ccc(-c3cccc(Cl)c3)nc21 [Compound 781] | > 200 |  |  | 1 to 25 |
| Cc1cccc(NC(=O)N2CCCC(F)(F)c3ccc(-c4cccc(Cl)c4)nc32)n1 [Compound 780] | ≤ 200 |  |  | > 25 |
| O=C(Nc1cccc(OCC(O)CO)n1)N1CCOc2ncc(-c3cccc(C(F)(F)F)c3)nc21 (centres unmarked) [Compound 742] | > 200 |  |  | < 1 |
| CC1(C)CCN(C(=O)Nc2ccc(F)cn2)c2nc(-c3cccc(C(F)(F)F)c3)ccc21 [Compound 843] | ≤ 200 |  |  | 1 to 25 |
| Cc1cncc(NC(=O)N2CCCOc3ccc(-c4ccnc(C)c4)nc32)c1 [Compound 655] | ≤ 200 | B (EC1.5 1-25 μM) |  |  |
| O=C(Nc1ncccn1)N1CCCOc2ccc(-c3cccc(Cl)c3)nc21 [Compound 865] | > 200 |  |  | 1 to 25 |
| O=C(Nc1ccncc1)N1CCOc2cnc(-c3cccc(C(F)(F)F)c3)nc21 [Compound 715] | ≤ 200 |  |  | 1 to 25 |
| O=C(Nc1cncc(F)c1)N1CCCOc2ccc(-c3cccc(Cl)c3)nc21 [Compound 853] | > 200 |  |  | 1 to 25 |
| Cc1cc(NC(=O)N2CCOc3ncc(-c4cccc(C(F)(F)F)c4)nc32)cc(C)n1 [Compound 726] | > 200 |  |  | < 1 |
| CC1(C)CC(NC(=O)N2CCOc3ccc(-c4cccc(C(F)(F)F)c4)nc32)CC(C)(C)N1 [Compound 634] | ≤ 200 | C (EC1.5>25 μM) |  |  |
